Assay results taken from patent US20250195530A1, “POLQ INHIBITORS” (ASTRAZENECA AB, priority 2022, published 2025).
Like-named read-outs stand apart in the source and are kept apart here.

Legend:
[1] = tested on: DLD-1 BRCA2−/− cells; assay: Homologous recombination synthetic lethal inhibition of proliferation, DLD-1 BRCA2-/- (Cell Titre Glo 3D); type: cell-based; conditions: Homo sapiens, DLD-1 BRCA2-/-, read-out: POLQ PD Prolif Lumin (converted)
Outline: (§1)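 DLD-1 BRCA2−/− (3,000 cells/mL) and parental DLD-1 (1,500 cells/mL) cells in phenol red-free RPMI 1640 with 10% FBS were exposed to a 10-point, three-fold compound series from 10 μM to 0.51 nM at 37 °C, 5% CO2. Medium and compound were replenished on day 6. CellTiter-Glo 3D luminescence was read on day 7 (DLD-1) or day 12 (BRCA2−/−), and IC50 was taken as 50% reduction of maximum signal.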

[2] = tested on: DLD-1 cells; assay: Inhibition of proliferation, DLD-1 BRCA2 wt control (Cell Titre Glo 3D); type: cell-based; conditions: Homo sapiens, DLD-1 BRCA2 wt control, read-out: POLQ PD Prolif Lumin (converted)
Outline: as §1

[3] = DLD-1, first proliferation column (c5)
[4] = DLD-1, second proliferation column (c6)
[5] = DLD-1, first proliferation column
[6] = DLD-1, second proliferation column

IC50 [2, 4]	IC50 [2, 6]	Structure (SMILES)	IC50 [1, 3]	IC50 [1, 5]
> 10000 nM		Cc1cc(Cl)nc(Cn2c(-c3ccc(OCCN4CCNCC4)cc3Cl)nc3c(OC4(C)CC4)ncnc32)c1 [Example T524, 8-(2-chloro-4-(2-(piperazin-1-yl)ethoxy)phenyl)-9-((6-chloro-4-methylpyridin-2-yl)methyl)-6-(1-methylcyclopropoxy)-9H-purine]	501 nM	
> 10000 nM		Cc1c(Cl)ccnc1Cn1c(-c2ccc(OCCN3CCNCC3)cc2Cl)nc2c(OC3(C)CC3)ncnc21 [Example T525, 9-((4-chloro-3-methylpyridin-2-yl)methyl)-8-(2-chloro-4-(2-(piperazin-1-yl)ethoxy)phenyl)-6-(1-methylcyclopropoxy)-9H-purine]	1260 nM	
> 10000 nM		Cc1cnc(Cn2c(-c3ccc(OCCN4CCNCC4)cc3Cl)nc3c(OC4(C)CC4)ncnc32)cc1Cl [Example T526, 8-(2-chloro-4-(2-(piperazin-1-yl)ethoxy)phenyl)-9-((4-chloro-5-methylpyridin-2-yl)methyl)-6-(1-methylcyclopropoxy)-9H-purine]	631 nM	
> 6310 nM		Cc1cc(Cl)cc(Cn2c(-c3ccc(OCCN4CCNCC4)cc3Cl)nc3c(OC4(C)CC4)ncnc32)n1 [Example T527, 8-(2-chloro-4-(2-(piperazin-1-yl)ethoxy)phenyl)-9-((4-chloro-6-methylpyridin-2-yl)methyl)-6-(1-methylcyclopropoxy)-9H-purine]	398 nM	
7940 nM		Cc1ccnc(Cn2c(-c3ccc(CCN4CCNCC4)cc3Cl)nc3c(OC4(C)CC4)ncnc32)c1 [Example T528, 8-(2-chloro-4-(2-(piperazin-1-yl)ethyl)phenyl)-6-(1-methylcyclopropoxy)-9-((4-methylpyridin-2-yl)methyl)-9H-purine]	398 nM	
> 10000 nM		Cc1cc(OCCN2CCNCC2)ccc1-c1nc2c(OC3(C)CC3)ncnc2n1Cc1cc(Cl)ccn1 [Example T529, 9-((4-chloropyridin-2-yl)methyl)-8-(2-methyl-4-(2-(piperazin-1-yl)ethoxy)phenyl)-6-(1-methylcyclopropoxy)-9H-purine]	631 nM	
> 10000 nM		Cc1cncc(Cn2c(-c3ccc(OCCN4CCNCC4)cc3Cl)nc3c(OC4(C)CC4)ncnc32)c1 [Example T530, 8-(2-chloro-4-(2-(piperazin-1-yl)ethoxy)phenyl)-6-(1-methylcyclopropoxy)-9-((5-methylpyridin-3-yl)methyl)-9H-purine]	1000 nM	
> 10000 nM		Cc1cc(Cn2c(-c3ccc(OCCN4CCNCC4)cc3Cl)nc3c(OC4(C)CC4)ncnc32)ccn1 [Example T531, 8-(2-chloro-4-(2-(piperazin-1-yl)ethoxy)phenyl)-6-(1-methylcyclopropoxy)-9-((2-methylpyridin-4-yl)methyl)-9H-purine]	6310 nM	
> 10000 nM		COc1ccc(Cn2c(-c3ccc(OCCN4CCNCC4)cc3Cl)nc3c(OC4(C)CC4)ncnc32)nc1 [Example T532, 8-(2-chloro-4-(2-(piperazin-1-yl)ethoxy)phenyl)-9-((5-methoxypyridin-2-yl)methyl)-6-(1-methylcyclopropoxy)-9H-purine]	6310 nM	
> 10000 nM		CC1(Oc2ncnc3c2nc(-c2ccc(OCCN4CCC[C@H]4C(=O)O)cc2Cl)n3Cc2cccc(Cl)c2)CC1 [Example T551, (2-(3-chloro-4-(9-(3-chlorobenzyl)-6-(1-methylcyclopropoxy)-9H-purin-8-yl)phenoxy)ethyl)-L-proline]	316 nM	
> 10000 nM		CC1(Oc2ncnc3c2nc(-c2ccc(OCCCN4CC[C@@H](O)C4)cc2Cl)n3Cc2cc(C(F)(F)F)ccn2)CC1 [Example T554, (R)-1-(3-(3-chloro-4-(6-(1-methylcyclopropoxy)-9-((4-(trifluoromethyl)pyridin-2-yl)methyl)-9H-purin-8-yl)phenoxy)propyl)pyrrolidin-3-ol]	316 nM	
> 10000 nM		Cc1ccnc(Cn2c(-c3ccc(CC(=O)N4C[C@@H]5C[C@H]4CN5)cc3Cl)nc3c(OC4(C)CC4)ncnc32)c1 [Example T559, 1-((1S,4S)-2,5-diazabicyclo[2.2.1]heptan-2-yl)-2-(3-chloro-4-(6-(1-methylcyclopropoxy)-9-((4-methylpyridin-2-yl)methyl)-9H-purin-8-yl)phenyl)ethan-1-one]	> 6310 nM	
> 10000 nM		CC1(Oc2ncnc3c2nc(-c2ccc(OCCCCCCC(=O)O)cc2Cl)n3Cc2cccc(Cl)c2)CC1 [Example T561, 7-(3-chloro-4-(9-(3-chlorobenzyl)-6-(1-methylcyclopropoxy)-9H-purin-8-yl)phenoxy)heptanoic acid]	39.8 nM	
10000 nM		CC1(Oc2ncnc3c2nc(-c2ccc(OCCCC(C)(C)C(=O)O)cc2Cl)n3Cc2cccc(Cl)c2)CC1 [Example T563, 5-(3-chloro-4-(9-(3-chlorobenzyl)-6-(1-methylcyclopropoxy)-9H-purin-8-yl)phenoxy)-2,2-dimethylpentanoic acid]	200 nM	
> 10000 nM		CC1(Oc2ncnc3c2nc(-c2ccc(OCCCN4CC[C@@H](O)C4)cc2Cl)n3Cc2cc(C(F)F)ccn2)CC1 [Example T568, (R)-1-(3-(3-chloro-4-(9-((4-(difluoromethyl)pyridin-2-yl)methyl)-6-(1-methylcyclopropoxy)-9H-purin-8-yl)phenoxy)propyl)pyrrolidin-3-ol]	794 nM	
	> 10000 nM	Cc1ccnc(Cn2c(-c3ccc(CC(=O)N4CCC(O)CC4)cc3Cl)nc3c(OC4(C)CC4)ncnc32)c1 [Example T574, 2-(3-chloro-4-(6-(1-methylcyclopropoxy)-9-((4-methylpyridin-2-yl)methyl)-9H-purin-8-yl)phenyl)-1-(4-hydroxypiperidin-1-yl)ethan-1-one]		1000 nM
	> 10000 nM	Cc1ccnc(Cn2c(-c3ccc(OCCN4CC5(CCN5)C4)cc3Cl)nc3c(OC4(C)CC4)ncnc32)c1 [Example T587, 8-(4-(2-(1,6-diazaspiro[3.3]heptan-6-yl)ethoxy)-2-chlorophenyl)-6-(1-methylcyclopropoxy)-9-((4-methylpyridin-2-yl)methyl)-9H-purine]		1000 nM
	> 10000 nM	Cc1ccnc(Cn2c(-c3ccc(C(=O)N4CC[C@H](N(C)C)C4)cc3Cl)nc3c(OC4(C)CC4)ncnc32)c1 [Example T588, (S)-(3-chloro-4-(6-(1-methylcyclopropoxy)-9-((4-methylpyridin-2-yl)methyl)-9H-purin-8-yl)phenyl)(3-(dimethylamino)pyrrolidin-1-yl)methanone]		1260 nM
	> 10000 nM	Cc1ccnc(Cn2c(-c3ccc(CC(=O)N4CCCNCC4)cc3Cl)nc3c(OC4(C)CC4)ncnc32)c1 [Example T589, 2-(3-chloro-4-(6-(1-methylcyclopropoxy)-9-((4-methylpyridin-2-yl)methyl)-9H-purin-8-yl)phenyl)-1-(1,4-diazepan-1-yl)ethan-1-one]		1580 nM
	> 10000 nM	Cc1ccnc(Cn2c(-c3ccc(OCCCN4CCCC4)cc3Cl)nc3c(OC4(C)CC4)ncnc32)c1 [Example T590, 8-(2-chloro-4-(3-(pyrrolidin-1-yl)propoxy)phenyl)-6-(1-methylcyclopropoxy)-9-((4-methylpyridin-2-yl)methyl)-9H-purine]		251 nM
	> 10000 nM	Cc1ccnc(Cn2c(-c3ccc(CCN4CCC(O)CC4)cc3Cl)nc3c(OC4(C)CC4)ncnc32)c1 [Example T591, 1-(3-chloro-4-(6-(1-methylcyclopropoxy)-9-((4-methylpyridin-2-yl)methyl)-9H-purin-8-yl)phenethyl)piperidin-4-ol]		316 nM
	> 10000 nM	Cc1ccnc(Cn2c(-c3ccc(OCCCN4CC[C@@H](O)C4)cc3Cl)nc3c(OC4(C)CC4)ncnc32)c1 [Example T592, (R)-1-(3-(3-chloro-4-(6-(1-methylcyclopropoxy)-9-((4-methylpyridin-2-yl)methyl)-9H-purin-8-yl)phenoxy)propyl)pyrrolidin-3-ol]		200 nM
	> 10000 nM	Cc1ccnc(Cn2c(-c3cccc(OCCCN4CC[C@@H](O)C4)c3Cl)nc3c(OC4(C)CC4)ncnc32)c1 [Example T593, (R)-1-(3-(2-chloro-3-(6-(1-methylcyclopropoxy)-9-((4-methylpyridin-2-yl)methyl)-9H-purin-8-yl)phenoxy)propyl)pyrrolidin-3-ol]		251 nM
	2510 nM	Cc1ccnc(Cn2c(-c3ccc(OCCN4CCNC[C@@H]4C)cc3Cl)nc3c(OC4(C)CC4)ncnc32)c1 [Example T594, (S)-8-(2-chloro-4-(2-(2-methylpiperazin-1-yl)ethoxy)phenyl)-6-(1-methylcyclopropoxy)-9-((4-methylpyridin-2-yl)methyl)-9H-purine]		501 nM

Structure (SMILES)	IC50 [2, 4]	IC50 [2, 6]	IC50 [1, 3]	IC50 [1, 5]
Cc1ccnc(Cn2c(-c3ccc(CC(=O)N4C[C@H]5C[C@@H](C4)O5)cc3Cl)nc3c(OC4(C)CC4)ncnc32)c1 [Example T547, rel-1-((1R,5S)-6-oxa-3-azabicyclo[3.1.1]heptan-3-yl)-2-(3-chloro-4-(6-(1-methylcyclopropoxy)-9-((4-methylpyridin-2-yl)methyl)-9H-purin-8-yl)phenyl)ethan-1-one]	> 10000 nM		501 nM	
Cc1ccnc(Cn2c(-c3ccc(CC(=O)N4CC5CC(C4)N5)cc3Cl)nc3c(OC4(C)CC4)ncnc32)c1 [Example T555, 1-(3,6-diazabicyclo[3.1.1]heptan-3-yl)-2-(3-chloro-4-(6-(1-methylcyclopropoxy)-9-((4-methylpyridin-2-yl)methyl)-9H-purin-8-yl)phenyl)ethan-1-one]	> 10000 nM		> 7940 nM	
